Where two headings read alike, the source gives them in different places.
Tests used:
[1] = test system: rotavirus vaccine; experiment: Rotavirus vaccine with oral adjuvant; antibody production in the blood; type: in vivo, mice; conditions: adjuvant oral at first inoculation only
Protocol: A rotavirus vaccine preparation was prepared to contain virus particles of which amount corresponded to 3.3 µg in 20 µL. The methyl ester derivative (2) (methyl 9,12,13-trihydroxy-10E-octadecenoate) as used in Example 5 was dissolved in PBS and prepared at a concentration of 10 µg in 0.5 mL. The resulting preparation was sterilized by filter and dispensed into containers, which were used as rotavirus vaccine-hydroxy unsaturated fatty acid oral preparations or nasal drops. Such preparations were stored at a temperature of not more than 10°C in a cool and dark place.
The rotavirus vaccine as prepared above was administered into mice twice at 3-week intervals, and then the methyl ester derivative was orally administered only at or around the time of the first inoculation. Then, the antibody production in the blood was evaluated.

[2] = test system: measles; experiment: Measles-rubella vaccine with oral adjuvant; antibody production in the blood, measles; type: in vivo, mice; conditions: vaccine twice at 3-week intervals, adjuvant oral at first inoculation only, vaccine alone: 0.14
Protocol: (§1) A measles-rubella vaccine preparation was prepared to contain virus particles of each vaccine of which amount corresponded to 7 µg in 20 µL of the preparation. 9,12,13-Trihydroxy-10E-octadecenoic acid dissolved in PBS and sterilized by filter was prepared at a concentration of 2.5 µg in 0.5 mL. A stabilizer (0.2% porcine gelatin, 0.1% sodium glutamate, 5% lactose) was added to these preparations. The resulting mixtures were dispensed into containers, which were used as measles-rubella vaccine combined vaccine-hydroxy unsaturated fatty acid nasal drop or oral preparations. Such preparations were stored at a temperature of not more than 10°C in a cool and dark place.
(§2) The measles-rubella vaccine as prepared above was administered into mice twice at 3-week intervals, and then 9,12,13-trihydroxy-10E-octadecenoic acid was orally administered only at or around the time of the first inoculation. Then, the antibody production in the blood was evaluated.

[3] = test system: anti-influenza virus IgG antibody; type: in vivo, BALB/c mice; conditions: secondary response
[4] = test system: pertussis toxin (PT); parameters: species or system mice; conditions: mouse, in vivo
[5] = test system: anti-influenza virus IgA antibody; experiment: […]; nasal irrigation liquid IgA by ELISA; type: in vivo, BALB/c mice; conditions: secondary response, 50 µg/kg oral over 1-5 days, versus no adjuvant (only a low level), Figure 4
[6] = test system: anti-influenza virus IgA antibody; type: in vivo, BALB/c mice; conditions: 50 µg/kg oral for 5 days, serum after 2 weeks, versus vaccine with aqueous solvent (only a low level), Figure 3
[7] = test system: Mycoplasma; type: in vivo, mice; conditions: vaccine intranasal 3 times at 2-week intervals, adjuvant oral at first inoculation only
[8] = test system: antibodies (IgG and IgA) specific to the adjuvant and IgE; experiment: Detection of antibodies specific to the adjuvant and IgE in nasal irrigation liquid (ELISA); type: in vivo; conditions: plate coated with fatty acid-BSA complex, absorbance versus control mice without administration
Protocol: Subsequently, detection was carried out for the presence of antibodies (IgG and IgA) specific to the adjuvant and IgE. A linked complex between the hydroxy unsaturated-fatty acid and bovine serum albumin as a carrier protein was prepared. Each well of the 96-well EIA plate was first coated with a 100 µl aliquot of solution containing the complex (1 µg/ml). Subsequently, each well of the plate was coated with 300 µl aliquot of a blocking solution (PBS containing 5% skimmed milk) for 1 hour to avoid non-specific reactions. Then, 100 µl samples (nasal irrigation liquid) diluted to various concentrations were added into the respective wells for antigen-antibody reaction and the reaction was continued for 1 hour. The plate was then washed 3 times with PBS-0.05% Tween-20, and then 100 µl of peroxidase-conjugated anti-mouse IgG, IgA or IgE antibody (1:1000) as a secondary antibody was added thereto and the reaction was continued for one hour. After the plate was washed 3 times with PBS-Tween-20, 100 µl of a substrate solution (0.1 M citrate buffer (pH 4) containing 0.003% hydrogen peroxide and ABTS of 0.3 mg/ml) was added thereto. The plate was incubated for 15 minutes for color development. The color (O.D. at 405 nm) was assayed in a micro-plate reader.

[9] = test system: tetanus toxoid (TT); parameters: species or system mice; conditions: mouse, in vivo
[10] = test system: diphtheria toxoid (DT); parameters: species or system mice; conditions: mouse, in vivo
[11] = test system: rubella; experiment: Measles-rubella vaccine with oral adjuvant; antibody production in the blood, rubella; type: in vivo, mice; conditions: vaccine twice at 3-week intervals, adjuvant oral at first inoculation only, vaccine alone: 0.09
Protocol: as §1, §2

[12] = test system: anti-influenza virus IgA antibody; type: in vivo, BALB/c mice

For `CCCCCC(O)C(O)/C=C/C(O)CCCCCCCC(=O)OC` (stereo not drawn) [methyl ester derivative, methyl 9,12,13-trihydroxy-10E-octadecenoate], the “ELISA titer of antibody produced” value ([1]; inoculation of nasal vaccine drop twice at 3-week intervals, vaccine alone: 0.089) was 0.38 and the “ELISA titer of antibody produced” value ([1]; vaccine inoculated orally twice at 3-week intervals, control without adjuvant: 0.018) was 0.27.
In the case of `CCCCCC(O)C(O)/C=C/C(O)CCCCCCCC(=O)O` (stereo not drawn) [9,12,13-trihydroxy-10E-octadecenoic acid], the “ELISA titer of antibody produced for measles” value [2] is reported as 0.30, the “titer of anti-influenza virus IgG antibody in the serum” value ([3]; compared with HA vaccine singly used, Figure 5) is reported as “increased” and the “titer of anti-influenza virus IgG antibody in the lung irrigation liquid” value ([3]; vaccine alone: only a low level, Figure 6) is reported as “significantly elevated”. The “level of anti-PT-IgA antibody” value [4] was 14 ELISA units, the “level of anti-PT-IgG antibody” value [4] was 442 ELISA units and the “titer of anti-influenza virus IgA antibody in the nasal irrigation liquids” value [5] was “highly elevated”. For the same compound, the “titer of anti-influenza virus IgA antibody in the serum” value [6] was “highly elevated”, the “average number of lesions” value ([7]; vaccine alone: 302) was 178 and the “mice in which lesions associated with Mycoplasma infection were found” value ([7]; vaccine alone: all of 10) was 3 of 10. The “antibodies (IgG, IgA) specific to the adjuvant and IgE” value [8] was “neither antibody (IgG, IgA) specific to the adjuvant nor IgE was detectable”, the “level of anti-TT-IgA antibody” value [9] was 11 ELISA units and the “level of anti-TT-IgG antibody” value [9] was 75 ELISA units. The “level of anti-DT-IgA antibody” value [10] was 11 ELISA units, the “level of anti-DT-IgG antibody” value [10] was 70 ELISA units and the “ELISA titer of antibody produced for rubella” value [11] was 0.29. For the same compound, the “adjuvant activity compared with the same dose of CTB (positive control), nasal irrigation liquid IgA” value ([12]; mouse, in vivo) was “comparable”, the “adjuvant activity compared with the same dose of CTB (positive control), serum IgA” value ([12]; mouse, in vivo) was “comparable” and the “titer of anti-influenza virus IgA antibody in the serum” value ([12]; secondary response, adjuvant 1 µg per mouse oral, vaccine subcutaneous, compared with HA vaccine singly used, Figure 7) was “significantly increased”. The “titer of anti-influenza virus IgA antibody in the nasal irrigation liquid” value ([12]; secondary response, adjuvant 1 µg per mouse oral, vaccine subcutaneous, vaccine alone: only a low level, Figure 8) was “significantly elevated”.

Reference: patent EP1195162A1 (priority 1999, dated 2000)
